Structures are written as SMILES.

Compound `C[C@@H](OC(=O)Nc1ccc(-c2c(C#N)c3ccc(O[C@H]4CCOC4)cc3n2C2CCC2)cc1)C1CC1` [Compound 2703] came in with a melting point of 166 to 168 °C.

In turn, `C[C@@H](OC(=O)Nc1ccc(-c2c(C#N)c3ccc(OCCN4C(=O)CN(C)C4=O)cc3n2C2CCC2)cc1)C1CC1` [Compound 3272] yielded a melting point of 79 to 81 °C.

Turning to `N#Cc1c(-c2ccc(N3CCCS3(=O)=O)cc2)n(C2CCC2)c2cc(N3CCOCC3)ccc12` [Compound 2914], the melting point lay within 290 to 292 °C.

Regarding `COCCN(CCOC)C(=O)c1ccc2c(C#N)c(-c3ccc(NC(=O)O[C@H](C)C4CC4)cc3)n(C3CCC3)c2c1` [Compound 2794], the melting point was 75 to 77 °C.

In turn, `COCCOc1ccc2c(C#N)c(-c3ccc(C(=O)NCc4ccc(F)cc4)cc3)n(C3CCC3)c2c1` [Compound 3134] gave a melting point of 154 to 160 °C.

As to `CCn1c(-c2ccc3c(ccn3S(C)(=O)=O)c2)c(C#N)c2ccc(OC)cc21` [compound 1330, 1-ethyl-1′-methanesulfonyl-6-methoxy-1H,1′H-[2,5′]biindolyl-3-carbonitrile], the melting point fell in the range of 148 to 151 °C.

Consider `CC(OC(=O)Nc1ccc(-c2c(C#N)c3ccc(OC4CCOCC4)cc3n2C2CC2)cc1)C(C)(C)C` (stereo not shown) [Compound 2648], for which the melting point lay in the range of 203 to 205 °C.

Regarding `CC(C)NC(=O)COc1ccc(-c2c(C#N)c3ccc(OC4CCOCC4)cc3n2C2CCC2)cc1` [Compound 3109], the melting point lay within 152 to 153 °C.

In the case of `COCCOc1ccc2c(C#N)c(-c3ccc(NS(=O)(=O)C4CC4)cc3)n(C3CCC3)c2c1` [Compound 1417], the melting point was 192 to 193 °C.

In turn, `C[C@@H](OC(=O)Nc1ccc(-c2cc3ccc(Oc4nccnc4C#N)cc3n2CC2CC2)cc1)C(F)(F)F` [Compound 3284] showed a melting point of 99 to 101 °C.

On to `C[C@H](NS(=O)(=O)Nc1ccc(-c2c(C#N)c3ccc(Oc4nccnc4C#N)cc3n2C2CCC2)cc1)C1CC1` [Compound 3276], for which the melting point fell in the range of 209 to 212 °C.

Compound `CC(C)n1c(-c2ccc(NC(=O)O[C@H](C)c3ccc(F)cc3)cc2)c(C#N)c2ccc(N3CCOCC3)cc21` [Compound 2953] came in with a melting point of 231 to 234 °C.

As to `CCOc1ccc2c(C#N)c(-c3ccc(NC(=O)OCCS(C)(=O)=O)cc3)n(C3CCC3)c2c1` [Compound 3079], the melting point was in the range of 194 to 195 °C.

In the case of `Cc1nccnc1Oc1ccc2c(C#N)c(-c3ccc(NC(=O)O[C@H](C)C4CC4)cc3)n(C3CCC3)c2c1` [Compound 2909], the melting point lay within 201 to 202 °C.

`C[C@@H](OC(=O)Nc1ccc(-c2c(C#N)c3ccc(N4CCOCC4)cc3n2C2CC2)cc1)C1CC1` [Compound 2857] yielded a melting point of 176 to 179 °C.

`CC(C)OC(=O)Nc1ccc(-c2c(C#N)c3ccc(OCCSc4ccccn4)cc3n2C2CCC2)cc1` [Compound 2697] showed a melting point of 145 to 146 °C.

On to `CCS(=O)(=O)Nc1ccc(-c2c(C#N)c3ccc(OC4CCOCC4)cc3n2C2CCC2)cc1` [Compound 2745], for which the melting point is 207 to 209 °C.

Turning to `CC(OC(=O)Nc1ccc(-c2c(C#N)c3ccc(OC4CCOCC4)cc3n2C2CCC2)cc1)c1ccccc1` (stereo not shown) [Compound 2618], the melting point lay within 96 to 98 °C.

`CC(C)NC(=O)Nc1c(F)cc(-c2c(C#N)c3ccc(OCCF)cc3n2C2CCC2)cc1F` [Compound 3041] came in with a melting point of 224 to 229 °C.

In the case of `C[C@H](OC(=O)Nc1ccc(-c2c(C#N)c3cc(OCCCn4cncn4)ccc3n2C2CCC2)cc1)c1ccccc1` [Compound 2733], the melting point is 206 to 208 °C.

In turn, `CCn1c(-c2ccc(NS(=O)(=O)CC)cc2)c(C#N)c2ccc(C(=O)N3CCN(c4ccccc4)CC3)cc21` [Compound 1362] registered a melting point of 236 to 238 °C.

Turning to `CCCS(=O)(=O)Nc1ccc(-c2c(C#N)c3ccc(Oc4ncccc4C(F)(F)F)cc3n2C2CCC2)cc1` [Compound 3201], the melting point lay within 181 to 184 °C.

For the compound `N#Cc1c(-c2ccc(NC(=O)OC3CCC3)cc2)n(C2CCC2)c2cc(OC3COCOC3)ccc12` [Compound 2872], the melting point lay within 215 to 216 °C.

The compound `N#Cc1c(-c2ccc(NS(=O)(=O)C3CC3)cc2)n(CC2CCCO2)c2cc(OC(F)F)ccc12` (stereo not shown) [Compound 1335] returned a melting point of 179 to 180 °C.

With `Cc1ccnc(Oc2ccc3c(C#N)c(-c4ccc(NC(C)C)cc4)n(C4CCC4)c3c2)n1` [Compound 3006], the melting point was in the range of 173 to 175 °C.

On to `CCNC(=O)Oc1ccc(-c2c(C#N)c3ccc(OC4CCOCC4)cc3n2C2CCC2)cc1` [Compound 2807], for which the melting point was in the range of 205 to 207 °C.

In the case of `C[C@@H](OC(=O)Nc1ccc(-c2cc3ccc(Oc4nccnc4C#N)cc3n2CC2CC2)cc1)C1CC1` [Compound 3283], the melting point was 145 to 147 °C.

`CN(C(=O)Oc1ccc(-c2c(C#N)c3ccc(OC4CCOCC4)cc3n2C2CCC2)cc1)c1ccccc1` [Compound 3112] yielded a melting point of 167 to 169 °C.

For `C[C@@H](OC(=O)Nc1ccc(-c2c(C#N)c3ccc(OC4CCS(=O)(=O)CC4)cc3n2C2CC2)cc1)C1CC1` [Compound 3199], the melting point is 205 to 210 °C.

In turn, `N#Cc1c(-c2ccc(NC(=O)OC(c3ccccc3)C(F)(F)F)cc2)n(C2CCC2)c2cc(OCCCCn3cncn3)ccc12` (stereo not shown) [Compound 2645] yielded a melting point of 118 to 120 °C.

`CCOCCOc1ccc2c(C#N)c(-c3ccc(NC(=O)OC(C)C)cc3)n(C3CCC3)c2c1` [Compound 2611] yielded a melting point of 115 to 116 °C.

Compound `CCOc1ccc2c(C#N)c(-c3ccc(S(=O)(=O)N4CCC[C@H]4CO)cc3)n(C3CCC3)c2c1` [Compound 2689] had a melting point of 180 to 183 °C.

In turn, `CCCS(=O)(=O)Nc1ccc(-c2c(C#N)c3ccc(Oc4nccnc4C#N)cc3n2CC2CC2)c(Cl)c1` [Compound 3307] displayed a melting point of 243 to 246 °C.

`CCn1c(-c2ccc(NC(=O)OC)cc2)c(C#N)c2ccc(OCCOC)cc21` [Compound 1367] returned a melting point of 191 to 194 °C.

Compound `C[C@@H](OC(=O)Nc1ccc(-c2c(C#N)c3ccc(OCCCCn4cncn4)cc3n2C2CCC2)cc1)C(F)(F)F` [Compound 2830] registered a melting point of 161 to 162 °C.

For `CCCS(=O)(=O)Nc1cc(C)c(-c2c(C#N)c3ccc(Oc4nccnc4C#N)cc3n2C2CCC2)cc1C` [Compound 3336], the melting point was 257 to 259 °C.

Compound `N#Cc1c(-c2ccc(NS(=O)(=O)C3CCC3)cc2)n(C2CCC2)c2cc(C(=O)N3CCOCC3)ccc12` [Compound 2900] yielded a melting point of 198 to 200 °C.

`CCOC(=O)Nc1ccc(-c2c(C#N)c3ccc(OCCOC)cc3n2CC)cc1` [Compound 1368] came in with a melting point of 175 to 177 °C.

In turn, `CCn1c(-c2ccc(OC(=O)N(C)CCOC)cc2)c(C#N)c2ccc(OC)cc21` [Compound 1385] registered a melting point of 122 to 127 °C.

Consider `C[C@H](NS(=O)(=O)Nc1ccc(-c2c(C#N)c3ccc(Oc4ncccc4Br)cc3n2C2CCC2)cc1)C1CC1` [Compound 3020], for which the melting point fell in the range of 118 to 124 °C.

With `CC(C)OC(=O)Nc1ccc(-c2c(C#N)c3cc(OCCn4ccnc4)ccc3n2C2CCC2)cc1` [Compound 2631], the melting point is 185 to 188 °C.

For the compound `CCn1c(-c2ccc(NC(=O)OC(C)C)cc2)c(C#N)c2ccc(OCCOC)cc21` [Compound 1406], the melting point is 141 to 144 °C.

Turning to `N#Cc1c(-c2ccc(NC(=O)NC3CCC3)cc2)n(C2CCC2)c2cc(N3CCOCC3)ccc12` [Compound 2863], the melting point was 172 °C (dec.).

`CC(C)Nc1ncc(-c2c(C#N)c3ccc(Oc4ncccn4)cc3n2C2CCC2)cn1` [Compound 3327] gave a melting point of 213 to 215 °C.

For `CCOC(=O)Nc1ccc(-c2c(C#N)c3ccc(OCCOC)cc3n2C2CCC2)cc1` [compound 1397, {4-[3-cyano-1-cyclobutyl-6-(2-methoxy-ethoxy)-1H-indole-2-yl]-phenyl}-carbamic acid ethyl ester], the melting point lay in the range of 170 to 171 °C.

Compound `CC(C)n1c(-c2ccc(NC(=O)O[C@H](C)C3CC3)cc2)c(C#N)c2ccc(OC3CCOCC3)cc21` [Compound 2741] registered a melting point of 208 to 210 °C.

`CC(OC(=O)Nc1ccc(-c2c(C#N)c3ccc(OC4CCOC4)cc3n2C2CCC2)cc1)C(F)(F)F` (stereo not shown) [Compound 1457] showed a melting point of 183 to 184 °C.

`C[C@@H](OC(=O)Nc1ccc(-c2c(C#N)c3ccc(O[C@@H]4CCOC4)cc3n2C2CCC2)cc1)C(F)(F)F` [Compound 2853] returned a melting point of 189 to 190 °C.

`CCCn1c(-c2ccc(NC(=O)N(CC)CC)cc2)c(C#N)c2ccc(OC)cc21` [Compound 1386] displayed a melting point of 213 to 214 °C.

`N#Cc1c(-c2ccc(N3CCCCS3(=O)=O)cc2)n(C2CCC2)c2cc(Oc3cnccn3)ccc12` [Compound 3220] registered a melting point of 187 to 196 °C.

Turning to `CCOc1ccc2c(C#N)c(-c3ccc(NCCc4ccccn4)cc3)n(C3CCC3)c2c1` [compound 1433, 1-cyclobutyl-6-ethoxy-2-[4-(2-pyridin-2-yl-ethylamino)-phenyl]-1H-indole-3-carbonitrile], the melting point lay in the range of 153 to 156 °C.

Compound `CCCS(=O)(=O)Nc1ccc(-c2c(C#N)c3ccc(Oc4nccnc4C)cc3n2C2CCC2)cc1` [Compound 2931] yielded a melting point of 227 to 230 °C.

As for `CCCS(=O)(=O)Nc1ccc(-c2c(C#N)c3ccc(Oc4ncccc4F)cc3n2CC2CC2)c(C)c1` [Compound 3030], the melting point lay within 128 to 131 °C.

Compound `COCCOc1ccc2c(C#N)c(-c3ccc(NC(=O)O[C@H](C)C4CC4)cc3)n(C3CCC3)c2c1` [Compound 2702] came in with a melting point of 116 to 117 °C.

`CC(NC(=O)Nc1ccc(-c2c(C#N)c3ccc(OC4CCOC4)cc3n2C2CC2)cc1)c1ccc(F)cc1` (stereo not shown) [Compound 1448]: the melting point lay within 182 to 184 °C.

`CC(C)OC(=O)Nc1ccc(-c2c(C#N)c3cc(C(=O)N4CCCC4)ccc3n2C2CCC2)cc1` [Compound 3148] came in with a melting point of 204 to 205 °C.

As for `CC(C)OC(=O)Nc1ccc(-c2c(C#N)c3ccc(OCCCNC4CC4)cc3n2C2CCC2)cc1` [Compound 1430], the melting point fell in the range of 122 to 125 °C.

With `CCn1c(-c2ccc(NC(=O)O[C@H](C)C(F)(F)F)cc2)c(C#N)c2ccc(Oc3ncccn3)cc21` [Compound 2929], the melting point is 221 to 223 °C.

Source of the values: patent US7772271B2 (priority 2004, dated 2010).
